Experimental data taken from patent US6197335A, “Solid pharmaceutical compositions comprising a cyclosporin and an anionic surfactant” (Sherman; Bernard Charles, priority 1997, dated 2001).

Experiment: critical micelle concentration of the surfactant in water
Assay type: physicochemical
From the text: The ability of anionic surfactants to solubilize cyclosporins in water substantially increases when the concentration of the surfactant in water substantially exceeds the critical micelle concentration. Using sodium lauryl sulfate, for example, the critical micelle concentration is about 0.1% by weight.

CCCCCCCCCCCCOS(=O)(=O)[O-].[Na+] [sodium lauryl sulfate]
critical micelle concentration: about 0.1 % by weight
